Assay results as given in patent publication US20220259193A1, “KCNT1 INHIBITORS AND METHODS OF USE” (Praxis Precision Medicines, Inc., priority 2019, published 2022).

These molecules were tested against T1, KCNT1 (KNa1.1, Slack) (Homo sapiens, UniProt Q5JUK3) (assay: KCNT1 patch clamp assay (SyncroPatch 384PE automated patch clamp)). Conditions: tetracycline inducible HEK-TREX cell line; perforated patch; step from −80 mV to 0 mV; room temperature; read-out: KCNT1-WT IC50.
T1 construct: expressed in transfected cells; host or cells: HEK-TREX (tetracycline-inducible HEK cell line)
T1 sequence (Q5JUK3 1-1230): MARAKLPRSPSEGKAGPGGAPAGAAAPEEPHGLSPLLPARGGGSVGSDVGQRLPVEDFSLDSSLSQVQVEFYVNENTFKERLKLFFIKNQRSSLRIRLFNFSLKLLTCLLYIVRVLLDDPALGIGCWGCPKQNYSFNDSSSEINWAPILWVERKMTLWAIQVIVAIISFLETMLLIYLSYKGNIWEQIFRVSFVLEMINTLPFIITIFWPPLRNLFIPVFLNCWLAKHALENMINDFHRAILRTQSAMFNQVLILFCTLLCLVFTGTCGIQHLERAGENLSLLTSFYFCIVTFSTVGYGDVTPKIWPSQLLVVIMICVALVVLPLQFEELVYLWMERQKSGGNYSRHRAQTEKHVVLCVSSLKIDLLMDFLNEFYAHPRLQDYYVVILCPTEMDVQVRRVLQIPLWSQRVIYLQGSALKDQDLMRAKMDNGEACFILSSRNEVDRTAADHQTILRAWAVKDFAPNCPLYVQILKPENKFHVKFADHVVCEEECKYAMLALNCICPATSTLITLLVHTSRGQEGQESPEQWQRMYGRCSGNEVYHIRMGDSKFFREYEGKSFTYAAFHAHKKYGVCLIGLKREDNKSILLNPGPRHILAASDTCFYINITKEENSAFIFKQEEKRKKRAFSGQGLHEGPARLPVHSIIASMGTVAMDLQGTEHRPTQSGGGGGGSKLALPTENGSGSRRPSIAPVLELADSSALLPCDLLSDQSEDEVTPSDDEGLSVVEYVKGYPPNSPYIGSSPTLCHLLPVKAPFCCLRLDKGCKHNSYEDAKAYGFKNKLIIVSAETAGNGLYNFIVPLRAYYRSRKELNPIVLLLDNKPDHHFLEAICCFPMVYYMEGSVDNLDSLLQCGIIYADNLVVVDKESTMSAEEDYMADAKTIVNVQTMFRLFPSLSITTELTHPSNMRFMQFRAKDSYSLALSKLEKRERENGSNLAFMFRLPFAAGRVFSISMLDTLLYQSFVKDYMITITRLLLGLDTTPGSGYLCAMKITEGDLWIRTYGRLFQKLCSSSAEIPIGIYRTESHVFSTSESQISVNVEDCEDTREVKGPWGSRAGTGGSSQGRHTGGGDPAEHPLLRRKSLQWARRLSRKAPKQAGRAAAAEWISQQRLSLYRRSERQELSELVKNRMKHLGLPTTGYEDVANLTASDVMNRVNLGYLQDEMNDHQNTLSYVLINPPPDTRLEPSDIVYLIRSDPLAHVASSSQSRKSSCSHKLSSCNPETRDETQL
Assay type: cell-based
Outline: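 Tetracycline-inducible HEK-TREX cells; perforated-patch (10 μM escin) population recordings at room temperature, holding −80 mV with 100 ms step to 0 mV.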

Structure (SMILES) | IC50 [nM]
CN(C)C(=O)C[C@@H](NC(=O)c1cc(C(F)(F)F)nn1C)c1nc(-c2cccc(F)c2)no1 (single isomer, unassigned) [Compound 135] | 1000 to 20000
CCC(NC(=O)c1cc(C2CC2)nn1C)c1nc(-c2cccc(F)c2)no1 (stereo not drawn) [Compound 48] | ≤ 1000
CC[C@H](NC(=O)c1ccnn1C1CCCC1)c1nc(-c2ccnc(C)c2)no1 [Compound 216, (S)-1-cyclopentyl-N-(1-(3-(2-methylpyridin-4-yl)-1,2,4-oxadiazol-5-yl)propyl)-1H-pyrazole-5-carboxamide] | ≤ 1000
CC[C@H](NC(=O)c1cc(C(F)(F)F)nn1C1CC1)c1nc(-c2cccc(F)c2)no1 [Compound 113] | ≤ 1000
Cc1nn(C(C)C)cc1C(=O)N[C@@H](C)c1nc(-c2ccc(F)c(Cl)c2)no1 [Compound 88] | 1000 to 20000
COC(=O)CC(NC(=O)c1cc(C(F)(F)F)nn1C)c1nc(-c2cccc(F)c2)no1 (single isomer, unassigned) [Compound 125, methyl 3-[3-(3-fluorophenyl)-1,2,4-oxadiazol-5-yl]-3-[[2-methyl-5-(trifluoromethyl)pyrazole-3-carbonyl]amino]propanoate] | ≤ 1000
Cc1nn(C2CCOCC2)cc1C(=O)N[C@@H](C)c1nc(-c2cccc(F)c2)no1 [Compound 152] | 1000 to 20000
Cn1nc(C(F)(F)F)cc1C(=O)NC(CC(N)=O)c1nc(-c2cccc(F)c2)no1 (single isomer, unassigned) [Compound 129, N-[3-amino-1-[3-(3-fluorophenyl)-1,2,4-oxadiazol-5-yl]-3-oxo-propyl]-2-methyl-5-(trifluoromethyl)pyrazole-3-carboxamide] | ≥ 20000
C[C@H](NC(=O)c1cc(C(F)(F)F)nn1C)c1nc(-c2ccnc(OC3CC3)c2)no1 [Compound 207, (S)—N-(1-(3-(2-cyclopropoxypyridin-4-yl)-1,2,4-oxadiazol-5-yl)ethyl)-1-methyl-3-(trifluoromethyl)-1H-pyrazole-5-carboxamide] | ≤ 1000
CC(NC(=O)c1c2c(nn1C)CCCC2)c1nc(-c2cccc(F)c2)no1 (stereo not drawn) [Compound 133] | 1000 to 20000
COC1CN(c2cc(-c3noc([C@H](C)NC(=O)c4cc(C(F)(F)F)nn4C)n3)ccn2)C1 [Compound 213, (S)—N-(1-(3-(2-(3-methoxyazetidin-1-yl)pyridin-4-yl)-1,2,4-oxadiazol-5-yl)ethyl)-1-methyl-3-(trifluoromethyl)-1H-pyrazole-5-carboxamide] | 1000 to 20000
Cn1nc(C2CC2)cc1C(=O)N[C@H](c1nc(-c2cccc(F)c2)no1)C1CC1 (single isomer, unassigned) [Compound 109] | ≤ 1000
Cn1nc(C(F)(F)F)cc1C(=O)N[C@H](CC(=O)NCCO)c1nc(-c2cccc(F)c2)no1 [Compound 122] | ≥ 20000
CC(C)OCc1cc(-c2noc([C@H](C)NC(=O)c3cc(C(F)(F)F)nn3C)n2)ccn1 [Compound 259, N-[(1S)-1-[3-[2-(isopropoxymethyl)-4-pyridyl]-1,2,4-oxadiazol-5-yl]ethyl]-2-methyl-5-(trifluoromethyl)pyrazole-3-carboxamide] | 1000 to 20000
C[C@H](NC(=O)c1cc(C(F)(F)F)nn1C)c1nc(-c2ccnc(OCC3CC3)c2)no1 [Compound 214, (S)—N-(1-(3-(2-(cyclopropylmethoxy)pyridin-4-yl)-1,2,4-oxadiazol-5-yl)ethyl)-1-methyl-3-(trifluoromethyl)-1H-pyrazole-5-carboxamide] | ≤ 1000
CC[C@H](NC(=O)c1ccnn1-c1ccccc1)c1nc(-c2ccnc(C)c2)no1 [Compound 215, (S)—N-(1-(3-(2-methylpyridin-4-yl)-1,2,4-oxadiazol-5-yl)propyl)-1-phenyl-1H-pyrazole-5-carboxamide] | 1000 to 20000
C[C@H](NC(=O)c1cn(C)nc1C1CCC1)c1nc(-c2cccc(F)c2)no1 [Compound 155] | 1000 to 20000
CC[C@H](NC(=O)c1cc(C(F)(F)F)nn1C(F)F)c1nc(-c2cccc(F)c2)no1 [Compound 112] | ≤ 1000
